In patent publication US7608724B2, “Antibacterial and/or antiprotozoal nitromidazole derivative compounds with urease inhibitor activity, process for preparing these compounds and use in pharmaceutical compositions and medicines” (EMS S.A., priority 2003, dated 2009):

Assays:
[1] = system: Salmonella typhimurium T-100 strain; test: Ames Test without metabolic activation (−S9), mutagenic activity; format: cell-based; conditions: for revertant colonies per plate (mean ± standard deviation): −S9, T-100 strain; for mutagenic rate (RM): −S9, positive response ≧2
Procedure: The mutagenic activity of the compounds were evaluated by The Ames Test without metabolic activation (−S9), with Salmonella typhimurium T-100 strain. The test is based in the fact that indicating S. typhimurium strains are sensitive to substances capable of inducing different kinds of mutation. In the presence of mutagenic agents, these strains revert the character of histidine auxotrophic synthesis, and start forming colonies in a medium were this aminoacid is absent. The mutagenic activity of a compound as its concentration function is established by counting the number of colonies per plate.
The final data obtained were analyzed by using Salanal software (Salmonella Assay Analysis) Version 1.0 from Research Triangle Institute, RTP, North Carolina, USA. This software allows to evaluate the dose-answer response by performing an analysis of variance (ANOVA f-test) between the mean revertants number in the different tested concentrations (doses) and the negative control, followed by a linear regression. […] The slope of the linear part of response-dosage curve is also furnished by the program and it corresponds to the number of revertants induced per mg of the sample analyzed.
MR is calculated by the following equation: […]

[2] = system: urease; test: Urease inhibiting test (phenol red, formation of ammonium from urea); format: biochemical; conditions: molar concentration of 30 nM
Procedure: Urease inhibition is evaluated by the assay based on RUÍZ-HERRERA, J; GONZALEZ, L. A (1969) and has the objective to verify in the visible spectra, by using phenol red as indicator, the formation of ammonium from urea according to the following reaction: […]

Row | Compound | revertant colonies per plate (mean ± standard deviation) ([1]; 2.9 (mM)/plate) | mutagenic rate (RM) ([1]; 2.9 (mM)/plate) | revertant colonies per plate (mean ± standard deviation) ([1]; 14.6 (mM)/plate) | mutagenic rate (RM) ([1]; 14.6 (mM)/plate) | revertant colonies per plate (mean ± standard deviation) ([1]; 29.2 (mM)/plate) | mutagenic rate (RM) ([1]; 29.2 (mM)/plate) | revertant colonies per plate (mean ± standard deviation) ([1]; 58.4 (mM)/plate) | mutagenic rate (RM) ([1]; 58.4 (mM)/plate) | revertant colonies per plate (mean ± standard deviation) ([1]; 116.9 (mM)/plate) | mutagenic rate (RM) ([1]; 116.9 (mM)/plate) | mutagenic activity compared with metronidazole parent drug or its monosuccinate ester (example 1) ([1]; FIG. 1, from table 1) | Urease inhibiting percentage ([2]; 1 minute) | Urease inhibiting percentage ([2]; 2 minutes) | Urease inhibiting percentage ([2]; 3 minutes)
1 | Cc1ncc([N+](=O)[O-])n1CCOC(=O)CCC(=O)NC(=S)NC(=O)CCC(=O)OCCn1c([N+](=O)[O-])cnc1C [Example 5, Bis[2-(2-methyl-5-nitro-1H-imidazol-1-yl)ethyl]4,4′[(thioxomethylene)diimine]bis(4-oxobutanoate)] | 162 ± 29 colonies per plate | RM = 1.3 | 316 ± 19 colonies per plate | RM = 2.5 | 606 ± 94 colonies per plate | RM = 4.8 | 1095 ± 100 colonies per plate | RM = 8.7 | 1582 ± 79 colonies per plate | RM = 12.5 | very inferior | 74% | 67% | 65%
2 | Cc1ncc([N+](=O)[O-])n1CCO [Metronidazole, 2-(2-methyl-5-nitro-1H-imidazol-1-yl)ethanol] |  |  |  |  |  |  |  |  |  |  |  | 6% | 7% | 7%
3 | NC(N)=S [Tiourea, thiourea] |  |  |  |  |  |  |  |  |  |  |  | 23% | 16% | 17%
